Here are results for 29 molecules from PubChem BioAssay (NCI).

What all share (assay): inhibition of tumour cell growth, NCI panel, 48 h
The subject of assay [1] is KM12 colon.
Assay [2] has as its system SF-539 CNS.
For assay [3], the system named is OVCAR-3 ovarian.
The test system of assay [4] is ACHN renal.
Assay [5] relates to EKVX NSCLC.
Assay [6] relates to SW-620 colon.
For assay [7], the system named is 786-0 renal.
Assay [8] deals with NCI-H23 lung.
Assay [9] deals with RPMI-8226 leukemia.

Values joined by “and” are separate entries in the source; they are usually repeats but may differ in a detail not shown here. Equal values may be shown once.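 Step 1: Grow cells in 96-well plates. Step 2: Expose to compound for 48 hours at 5 concentrations. Step 3: Interpolate endpoints linearly; if unreached, use highest concentration. Here, GI50 denotes the concentration required for 50% inhibition of growth. TGI: total growth inhibition.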

As to `CN(C(=O)C12C3C4C1C1C2C3C41C(N)=O)C(C)(C)C` (stereo not given), the TGI in [1], in assay [2], in assay [3], in assay [4], in [5] and in [6] was above 100 µM in each case. Besides, the TGI in assay [7] and in [8] was above 100 µM throughout.
`COc1c(O)c2c3c(cc(C)cc3c1C(C)C)OC2`: the TGI in [1], in assay [2], in [3], in [4], in assay [5] and in assay [6] was above 100 µM throughout. Further, the TGI in [9], in assay [7] and in assay [8] was above 100 µM each time.
On to `CCCCCCC[CH2][Sn]([CH2]CCCCCCC)([O]c1cccc2cccnc12)[O]c1cccc2cccnc12`, for which the GI50 in assay [1] was 1.91 µM; in assay [2] it was 2.05 µM; in assay [3] it was 1.85 µM; in [4], 2.98 µM; in assay [5] it was 2.06 µM; in assay [6] it was 0.391 µM. Also, the GI50 was 0.625 µM in assay [9] and 1.49 µM in assay [7]. Further, the TGI in assay [1] stood at 4.19 µM; in [2], 4.68 µM; in assay [3] it was 6.62 µM; in assay [4], 11.1 µM; in assay [5] it was 7.18 µM; in [6], 1.89 µM. For the same molecule, the TGI in assay [9] and in assay [7] was 2.84 µM in each case.
In the case of `O=C1CCCCC1S(=O)(=O)c1ccccc1` (stereo not given), the TGI in assay [1], in assay [2], in assay [3], in [4], in assay [5] and in [6] was above 100 µM in each case. Besides, the TGI in assay [9], in assay [7] and in [8] was above 100 µM throughout.
In the case of `C=Cc1cncc(C#N)c1CCc1c(C#N)cncc1C=C`, the GI50 is above 100 µM in assay [1]; above 100 µM in [2]; above 100 µM in assay [3]; above 100 µM in assay [4]; above 10 µM in assay [5]; above 100 µM in assay [6]. Moreover, the GI50 in assay [9], in [7] and in assay [8] was above 100 µM in each case. The TGI in assay [1], in [2], in assay [3], in assay [4], in assay [5] and in [6] was above 100 µM in each case. For the same molecule, the TGI in [9], in assay [7] and in assay [8] was above 100 µM in each case.
For the molecule `c1cncc(C2N3CCCCC3[C@@H]3c4[nH]c5ccccc5c4CCN23)c1` (stereo not given in full), the TGI in assay [2], in [3], in [4], in assay [5], in [6] and in assay [9] was above 100 µM each time. Also, the TGI in assay [7] and in assay [8] was above 100 µM in each case.
Consider `COc1cc2ccnc3c2c(c1OC)-c1coc(SC)c1-3`, for which the TGI in assay [1], in assay [2], in assay [4], in [6], in [9] and in assay [7] was above 100 µM in each case.
With `C=C/C=C/NC(=O)OCc1ccccc1`, the TGI in assay [1], in [3], in assay [4], in [5], in assay [6] and in assay [9] was above 100 µM in each case. The molecule also returned a TGI in assay [7] above 100 µM.
For `CC(=O)N1CC(C)(C)c2c(C)c(O)c(C)c(C)c21`, the TGI in assay [1], in assay [2], in [3], in [4], in [5] and in assay [6] was above 100 µM in each case. The TGI in [9], in assay [7] and in assay [8] was above 100 µM each time.
For the molecule `CC(=O)Nc1ccc(S(=O)(=O)N/N=C/CN2C(=O)c3ccccc3C2=O)cc1`, the TGI in assay [1], in assay [2], in assay [4], in assay [5], in assay [6] and in assay [9] was above 100 µM throughout. The TGI in assay [7] and in assay [8] was above 100 µM each time.
Consider `CC1CCC/C1=C(/I)C(=O)c1ccccc1` (stereo not given), for which the TGI in [1], in assay [2], in assay [4], in assay [5], in assay [6] and in assay [9] was above 100 µM each time. Moreover, the TGI in assay [7] and in [8] was above 100 µM in each case.
Consider `OC(CCNC12CC3CC(CC(C3)C1)C2)c1ccccc1` (stereo not given), for which the TGI in assay [1], in [2], in [3], in assay [4], in [5] and in assay [6] was above 100 µM throughout. Moreover, the TGI in assay [7] and in [8] was above 100 µM each time.
For `C=C(C(N)=O)c1ccc([N+](=O)[O-])o1`, the TGI in [1] came to 34.8 µM; in assay [2], 27.2 µM; in [3] it was 22.4 µM; in assay [4] it was 12.2 µM; in assay [5], 42 µM; in [6], 32.3 µM. For the same molecule, the values for the TGI in assay [7] and in assay [8] were 24.1 µM and 20.6 µM, respectively.
Take `CCOC(C[C@H](O[Si](C)(C)C(C)(C)C)[C@H]1COC(=S)S1)OCC`: the TGI in assay [1], in assay [2], in assay [3], in [4], in [5] and in assay [6] was above 100 µM in each case. The TGI in [9], in assay [7] and in assay [8] was above 100 µM each time.
Take `C=C1CC2OC(=O)C(=C)C2C(O)C2C(=C)CCC12` (stereo not given): the TGI in assay [1] turned out to be 22.6 µM; in assay [2], 11.5 µM; in [3], 22.3 µM; in [4] it was 21.2 µM; in assay [5] it was 19.7 µM; in assay [6], 13.8 µM. The TGI stood at 14.3 µM in assay [9], 26.7 µM in assay [7] and 27 µM in assay [8].
Regarding `CCOC(=O)CC[C@H](NC(=O)c1nc[nH]c1[N+](=O)[O-])C(=O)OCC`, the TGI in assay [1], in assay [2], in assay [3], in [4], in assay [5] and in [9] was above 100 µM each time. Moreover, the TGI in [7] and in [8] was above 100 µM each time.
Consider `O=C(O)CC[C@H](NC(=O)c1ccc(-n2nc3ccc(O)cc3nc2=O)cc1)C(=O)O`, for which the TGI in assay [1], in assay [2], in assay [3], in assay [4], in assay [5] and in assay [6] was above 100 µM in each case. For the same molecule, the TGI in [9], in assay [7] and in assay [8] was above 100 µM each time.
`CCOC(=O)/C(C1=NCCN1)=C(\O)c1ccccc1`: the TGI in assay [1], in [2], in assay [3], in [4], in [5] and in [6] was above 100 µM in each case. The TGI in [9], in assay [7] and in assay [8] was above 100 µM each time.
Take `COc1cc(OC)c2nc(C)c3c(c2c1)SCC3`: the TGI is above 100 µM in [1]; 35.8 µM in assay [2]; 36.4 µM in assay [3]; 34.5 µM in [4]; 52.9 µM in assay [5]; above 100 µM in assay [6]. Besides, the figures for the TGI in assay [9], in assay [7] and in [8] were 64.4 µM, 35.4 µM and 58.6 µM, respectively.
On to `OC1(C23CC4CC(CC(C4)C2)C3)CSCC1(O)C12CC3CC(CC(C3)C1)C2` (stereo not given), for which the TGI in assay [1], in assay [2], in assay [3], in assay [5], in assay [6] and in [9] was above 100 µM in each case. Besides, the TGI in assay [7] and in assay [8] was above 100 µM each time.
Consider `CC[C@@]1(O)C(=O)OCc2c1cc1n(c2=O)Cc2cc3cc4c(cc3nc2-1)OCO4`, for which the GI50 in assay [1] is 0.0353 µM and < 0.0188 µM; in assay [3] it was 0.0135 µM; in [5], 0.415 µM. Besides, the TGI in assay [1] stood at 0.369 µM; in assay [2] it was 0.0013 µM; in assay [3], 0.0793 µM; in assay [6], 3.18 µM; in [7] it was 0.00274 µM.
For `NC(=O)CN(CC(N)=O)C(N)=O`, the TGI in [1], in assay [2], in assay [3], in assay [4], in assay [5] and in assay [6] was above 100 µM throughout. Moreover, the TGI in [9], in assay [7] and in [8] was above 100 µM in each case.
For `Cc1ccc2c(c1)-c1c3c(nn1-c1ccccc1)-c1ccccc1SC3O2` (stereo not given), the TGI in assay [1], in [2], in assay [3], in assay [4], in [5] and in assay [6] was above 100 µM in each case. Also, the TGI in assay [9], in [7] and in assay [8] was above 100 µM in each case.
Consider `C[C@@]12CCC(=O)c3coc(c31)C(=O)c1cc3c(cc12)C(=O)C=CC3=O`, for which the GI50 was above 1 µM in assay [1]; below 1 µM in assay [2]; above 1 µM in assay [3]; above 1 µM in assay [4]; above 1 µM in assay [5]; above 1 µM in assay [6]. Besides, the GI50 in [9] and in assay [7] was above 1 µM throughout. Moreover, the TGI was above 61.6 µM in assay [1]; > 1 µM and 31.7 µM in assay [2]; > 1 µM and 32.7 µM in assay [3]; > 1 µM and 30.3 µM in [4]; > 1 µM and 48.6 µM in assay [5]; > 1 µM and 35.7 µM in assay [6]. Moreover, the TGI was above 100 µM in [9]; > 1 µM and 31 µM in assay [7]; 26.2 µM in [8].
For `COc1ccc2c(c1)C(=O)c1ccc(OC)cc1C2=S`, the TGI in [1], in assay [2], in assay [3], in [4], in assay [5] and in assay [6] was above 100 µM throughout. Also, the TGI in assay [9], in [7] and in assay [8] was above 100 µM each time.
Turning to `CCCCCCCCCCCCCCCC(=O)OCC1OC(n2cc(F)c(=O)[nH]c2=O)C(N)C(O)C1O` (stereo not given), the TGI in [1] came out at 33.3 µM; in [2], 34.8 µM; in assay [3], 9.72 µM; in assay [4], 33.9 µM; in assay [5] it was 35.6 µM; in assay [6], 30.4 µM. The TGI in assay [9] is 51.3 µM; in assay [7], 35.2 µM; in assay [8], 39.3 µM.
On to `CC(CN(C)C)/C(=N\Nc1ccccc1)c1ccccc1` (stereo not given), for which the TGI in assay [1] is 14.4 µM; in [2], 0.774 µM; in assay [3] it was 6.83 µM; in assay [4], 2.08 µM; in assay [5], 35.6 µM; in assay [6] it was above 100 µM. Moreover, the results for the TGI in assay [9], in assay [7] and in assay [8] were 67.6 µM, 29.5 µM and 23.4 µM, respectively.
As to `O=[N+]([O-])c1ccc(-n2nnc(C3=NCCN3)c2-c2ccccc2)cc1`, the TGI in assay [1], in assay [2], in [3], in [4], in assay [5] and in assay [6] was above 100 µM throughout. For the same molecule, the TGI in assay [9], in assay [7] and in assay [8] was above 100 µM throughout.
With `CSc1nnc(CCC(=O)Nc2c(C)cccc2C)o1`, the TGI in assay [1], in assay [2], in assay [3], in [5], in assay [6] and in assay [9] was above 100 µM each time. For the same molecule, the TGI in assay [7] and in [8] was above 100 µM each time.
